US12181483B2, “Kit comprising antibody binding acrolein-protein conjugate for diagnosing nephropathy” (National Yang Ming Chiao Tung University, priority 2022, dated 2024)

How the values were obtained:
[1] = system: mice; experiment: Acrolein-treated animal model (oral gavage) compared with vehicle control: glucose handling, renal function, kidney histology; assay type: in vivo
Experimental: To investigate the role of acrolein in the pathogenesis of diabetic nephropathy (DN), we compared the renal function of HFD/STZ-induced DN mice and mice treated with acrolein (2.5 mg/kg, p.o.) as shown in FIG. 2A.
We further explored the pathological abnormalities in HFD/STZ-induced DN mice and acrolein-treated mice.

[2] = system: acrolein-modified BSA (Acr-BSA) or acrolein-modified OVA (Acr-OVA); experiment: ELISA of hybridoma clones / purified Acr-PC antibody against acrolein-modified proteins; assay type: binding
Experimental: Monoclonal antibody preparation. Female BALB/c mice were immunized three times with the acrolein-treated ovalbumin (Acr-OVA). Spleen cells from the immunized mice were fused with NS0 murine myeloma cells and cultured in a hypoxantineyamethopterinythymidine selection medium. Culture supernatants of the hybridoma were screened using an ELISA assay, pairs of wells in the microtiter plates on which acrolein-treated BSA (Acr-BSA) was absorbed. After being incubated with 100 μl of hybridoma supernatants and washed with Tris-buffered saline (TBS) containing 0.05% Tween 20 (TBST), the wells were incubated with HRP-conjugated goat anti-mouse IgG, followed by a substrate solution containing TMB. Hybridoma cells corresponding to supernatants that were positive on Acr-BSA or Acr-OVA and negative on BSA or OVA were then cloned by limiting dilutions. After the repeated screening, five clones were obtained. […] After antibody purification from hybridoma clone #5, we confirmed the specificity and examined the antibody titer using a similar ELISA assay described above.

[3] = mice kidney, acrolein group vs control group (FIG. 2I)
[4] = mice, acrolein group vs control group (FIG. 2I)
[5] = antibody purified from hybridoma clone #5 (FIG. 3B)

Molecule | collagen fiber content and degree of fibrosis, Sirius red staining [1, 3] | positive immunohistochemical staining for Acr-PC in the glomeruli and renal tubules [1, 3] | insulin intolerance, insulin tolerance tests (ITT) ([1]; mice, acrolein 2.5 mg/kg p.o., 16 weeks, severity not as high as in HFD/STZ mice (FIGS. 2D-E)) | blood glucose (fasting plasma glucose) ([1]; mice, acrolein 2.5 mg/kg p.o., oral gavage for 16 weeks, vs control group (FIG. 2B)) | kidney histology, H&E staining [1, 4] | kidney histology, PAS staining [1, 4] | urine albumin/creatinine ratio (UACR) ([1]; mice, oral gavage of acrolein for 12 weeks (FIG. 2F)) | urine albumin/creatinine ratio (UACR) ([1]; mice, oral gavage of acrolein for 16 weeks, vs control group (FIG. 2F)) | uric acid (UA) ([1]; mice, oral gavage of acrolein for 16 weeks, vs control group (FIG. 2G)) | blood urea nitrogen (BUN) ([1]; mice, oral gavage of acrolein for 16 weeks, vs control group (FIG. 2H)) | antibody titer in ELISA [2, 5] | specificity in ELISA [2, 5] | recognition of Acr-BSA or Acr-OVA in ELISA ([2]; hybridoma supernatant, among five clones (#1 to #5) (FIG. 3A))
C=CC=O [acrolein] | increased evidently | significantly increased | induced insulin intolerance | did not increase blood glucose | disorderly, inflammatory cell infiltration in the interstitium and vacuolar lesion in the epithelial cells | glomerular mesangium expansion and extracellular matrix deposition | increased UACR, although not significantly | significant increase | significant increase | significant increase | – | – | –
clone #5: monoclonal antibody purified from hybridoma clone #5 recognizing acrolein-protein conjugate; heavy chain SEQ ID NO:1, light chain SEQ ID NO:2 (antibody, listed as Mus musculus, V domains shown) VH: QVQLQESGAELARPGASVRLSCKASGNIFPDHSINWVKQRTGQGLEWIGEIFHGSGNTYYNEKFKGKATLTADKSSTTVYLQLTSLTSEDSAVYFCARWVYGSSFFDVWGAGTTVTVSSAKTTPPSVYPLAP VL: DIVLTQTPASLAVSLGQTITIFCRASESVEYYGTNLMQWYQQKPGQPPRVLIYGASNVESGVPARFSGSGSGTDFSLNILPVEEDDIAMYFCQQSRKVPWTFGGGTKLEIKRADAAPTV | – | – | – | – | – | – | – | – | – | – | high | high specificity | most distinctive recognition of Acr-BSA or Acr-OVA
